Patent US12172995B2, “Substituted indole and indazole compounds” (BRISTOL-MYERS SQUIBB COMPANY, priority 2018, dated 2024)

Experiments:
Type in all cases: cell-based
[1] = biological target: T1, human TLR8 (Homo sapiens, UniProt Q9NR97); assay: TLR8 inhibition reporter assay (HEK-Blue SEAP); settings: HEK-Blue cells overexpressing human TLR8, stimulated with R848 15.9 μM, 22 hour incubation
T1 construct: host or cells: HEK-Blue cells
T1 sequence (Q9NR97 27-1041): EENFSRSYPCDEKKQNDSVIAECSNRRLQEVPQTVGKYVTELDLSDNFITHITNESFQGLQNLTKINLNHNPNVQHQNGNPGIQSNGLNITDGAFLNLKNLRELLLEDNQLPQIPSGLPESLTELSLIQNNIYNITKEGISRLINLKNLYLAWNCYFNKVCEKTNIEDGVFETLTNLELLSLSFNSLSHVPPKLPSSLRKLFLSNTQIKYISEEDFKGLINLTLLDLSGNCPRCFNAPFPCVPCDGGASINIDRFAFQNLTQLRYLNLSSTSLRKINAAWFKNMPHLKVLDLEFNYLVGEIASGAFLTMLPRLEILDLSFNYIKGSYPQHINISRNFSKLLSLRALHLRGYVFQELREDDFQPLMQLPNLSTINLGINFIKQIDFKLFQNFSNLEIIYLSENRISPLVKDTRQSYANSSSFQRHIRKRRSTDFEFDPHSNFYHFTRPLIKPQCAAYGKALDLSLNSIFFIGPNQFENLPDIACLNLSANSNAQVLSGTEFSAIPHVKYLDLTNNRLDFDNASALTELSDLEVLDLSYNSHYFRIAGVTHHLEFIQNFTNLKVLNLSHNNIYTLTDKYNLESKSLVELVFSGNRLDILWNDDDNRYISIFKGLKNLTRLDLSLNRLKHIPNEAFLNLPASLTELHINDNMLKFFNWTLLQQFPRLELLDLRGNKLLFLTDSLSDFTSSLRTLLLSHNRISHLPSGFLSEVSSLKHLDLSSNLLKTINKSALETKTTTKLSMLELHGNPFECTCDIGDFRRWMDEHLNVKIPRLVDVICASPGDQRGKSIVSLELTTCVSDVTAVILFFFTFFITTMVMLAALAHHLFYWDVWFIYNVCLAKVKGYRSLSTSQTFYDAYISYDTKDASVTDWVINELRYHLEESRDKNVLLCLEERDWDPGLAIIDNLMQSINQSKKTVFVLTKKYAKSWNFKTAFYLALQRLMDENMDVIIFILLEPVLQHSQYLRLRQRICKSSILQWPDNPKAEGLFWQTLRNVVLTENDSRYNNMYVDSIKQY
Outline: (§1)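 Percent inhibition reflects SEAP reduction after 22 h at 37° C, relative to agonist-plus-DMSO and known-inhibitor controls. Compounds (0.05 nM to 50 μM) were added 30 min before agonist: TLR9 cells received ODN2006 5 nM, TLR8 cells R848 15.9 μM, TLR7 cells gardiquimod 7.5 μM; human receptor-expressing HEK-Blue reporter lines.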

[2] = biological target: T2, human TLR7 (Homo sapiens, UniProt Q9NYK1); assay: TLR7 inhibition reporter assay (HEK-Blue SEAP); settings: HEK-Blue cells overexpressing human TLR7, stimulated with gardiquimod 7.5 μM, 22 hour incubation
T2 construct: host or cells: HEK-Blue cells
T2 sequence (Q9NYK1 27-1049): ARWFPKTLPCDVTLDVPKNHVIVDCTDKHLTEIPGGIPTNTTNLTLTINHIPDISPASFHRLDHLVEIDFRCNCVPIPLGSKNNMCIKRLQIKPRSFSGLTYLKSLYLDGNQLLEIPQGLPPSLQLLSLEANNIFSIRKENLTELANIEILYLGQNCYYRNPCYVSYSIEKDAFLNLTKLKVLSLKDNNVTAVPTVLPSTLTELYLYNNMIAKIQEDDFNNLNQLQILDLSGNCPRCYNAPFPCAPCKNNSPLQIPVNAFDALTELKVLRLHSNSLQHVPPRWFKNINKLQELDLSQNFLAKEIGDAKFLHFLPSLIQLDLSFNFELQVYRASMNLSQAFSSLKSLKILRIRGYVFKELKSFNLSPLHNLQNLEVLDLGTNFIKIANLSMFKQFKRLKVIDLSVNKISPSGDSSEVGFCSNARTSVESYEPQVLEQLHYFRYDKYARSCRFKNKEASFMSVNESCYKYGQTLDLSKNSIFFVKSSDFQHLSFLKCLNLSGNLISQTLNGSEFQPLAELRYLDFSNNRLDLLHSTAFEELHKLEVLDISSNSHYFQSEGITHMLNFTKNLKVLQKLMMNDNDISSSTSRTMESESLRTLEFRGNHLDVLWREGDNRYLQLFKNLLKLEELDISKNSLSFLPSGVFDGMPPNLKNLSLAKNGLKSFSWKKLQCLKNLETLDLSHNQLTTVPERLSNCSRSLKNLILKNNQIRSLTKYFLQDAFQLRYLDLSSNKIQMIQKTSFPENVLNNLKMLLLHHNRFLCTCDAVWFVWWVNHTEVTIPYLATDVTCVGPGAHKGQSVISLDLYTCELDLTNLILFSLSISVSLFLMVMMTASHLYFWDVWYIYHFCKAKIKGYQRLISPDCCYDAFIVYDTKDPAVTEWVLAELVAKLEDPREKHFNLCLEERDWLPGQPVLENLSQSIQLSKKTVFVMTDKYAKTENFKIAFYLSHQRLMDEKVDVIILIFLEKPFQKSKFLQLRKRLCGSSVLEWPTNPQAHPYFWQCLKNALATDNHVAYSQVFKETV
Outline: as §1

[3] = biological target: T3, human TLR9 (Homo sapiens, UniProt Q9NR96); assay: TLR9 inhibition reporter assay (HEK-Blue SEAP); settings: HEK-Blue cells overexpressing human TLR9, stimulated with ODN2006 5 nM, 22 hour incubation
T3 construct: host or cells: HEK-Blue cells
T3 sequence (Q9NR96 26-1032): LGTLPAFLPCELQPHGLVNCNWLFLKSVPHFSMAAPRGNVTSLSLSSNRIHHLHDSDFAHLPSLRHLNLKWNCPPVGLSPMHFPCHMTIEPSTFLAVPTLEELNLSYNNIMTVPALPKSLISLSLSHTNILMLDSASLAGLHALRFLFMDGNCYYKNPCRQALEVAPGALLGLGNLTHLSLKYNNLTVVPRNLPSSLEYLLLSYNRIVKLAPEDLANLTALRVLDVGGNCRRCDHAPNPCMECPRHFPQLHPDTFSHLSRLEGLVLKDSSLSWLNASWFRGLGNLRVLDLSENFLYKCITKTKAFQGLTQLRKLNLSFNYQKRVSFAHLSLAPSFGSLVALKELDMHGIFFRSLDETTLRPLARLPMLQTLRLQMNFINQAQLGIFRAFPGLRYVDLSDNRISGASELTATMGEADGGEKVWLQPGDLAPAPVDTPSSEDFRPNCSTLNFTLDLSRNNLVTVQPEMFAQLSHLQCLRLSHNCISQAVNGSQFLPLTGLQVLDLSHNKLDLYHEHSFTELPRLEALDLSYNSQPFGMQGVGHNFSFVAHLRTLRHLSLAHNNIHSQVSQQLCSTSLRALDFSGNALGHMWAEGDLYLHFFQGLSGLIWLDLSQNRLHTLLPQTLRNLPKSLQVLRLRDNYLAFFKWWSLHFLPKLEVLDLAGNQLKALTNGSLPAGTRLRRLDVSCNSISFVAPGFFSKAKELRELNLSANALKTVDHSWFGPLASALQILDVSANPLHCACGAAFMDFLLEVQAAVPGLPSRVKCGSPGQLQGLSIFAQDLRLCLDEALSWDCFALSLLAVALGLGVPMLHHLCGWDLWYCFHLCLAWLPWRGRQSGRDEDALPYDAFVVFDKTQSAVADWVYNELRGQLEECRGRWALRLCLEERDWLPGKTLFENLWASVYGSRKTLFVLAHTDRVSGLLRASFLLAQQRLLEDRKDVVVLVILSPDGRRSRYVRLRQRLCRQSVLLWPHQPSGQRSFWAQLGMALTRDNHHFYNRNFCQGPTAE
Outline: as §1

Row | IC50 [1] [nM] | IC50 [2] [nM] | IC50 [3] [nM] | SMILES
1 | 0.5 | 0.8 | 13100 | COC1CN(C2CCC(c3n[nH]c4cc(-c5cc(C)c6ncnn6c5)c(C(C)C)cc34)CC2)C1 (stereo not drawn) [Example 144, 6-(5-isopropyl-3-(4-(3-methoxyazetidin-1-yl)cyclohexyl)-1H-indazol-6-yl)-8-methyl-[1,2,4]triazolo[1,5-a]pyridine]
2 | 0.5 | 2.6 | 14600 | CCc1cc2c(OC3CCC(N(C)C)CC3)n[nH]c2cc1-c1cc(C)c2ncnn2c1 (single isomer, unassigned) [Example 191, 4-((5-ethyl-6-(8-methyl-[1,2,4]triazolo[1,5-a]pyridin-6-yl)-1H-indazol-3-yl)oxy)-N,N-dimethylcyclohexan-1-amine]
3 | 245 | 64.4 | 363 | COc1cc(-c2ccc3c(C4CCNCC4)c[nH]c3c2)cn2ncnc12 [Example 11, 8-methoxy-6-(3-(piperidin-4-yl)-1H-indol-6-yl)-[1,2,4]triazolo[1,5-a]pyridine]
4 | 0.1 | 1.5 | 20300 | Cc1cc(-c2cc3[nH]nc(C4CCN(CC(C)(C)O)CC4)c3cc2C(C)C)cn2ncnc12 [Example 113, 1-(4-(5-isopropyl-6-(8-methyl-[1,2,4]triazolo[1,5-a]pyridin-6-yl)-1H-indazol-3-yl)piperidin-1-yl)-2-methylpropan-2-ol]
5 | 0.2 | 0.5 | 9850 | Cc1cc(-c2cc3[nH]nc(C4CCC(N5CC6(CCOC6)C5)CC4)c3cc2C(C)C)cn2ncnc12 (stereo not drawn) [Example 158, 2-(4-(5-isopropyl-6-(8-methyl-[1,2,4]triazolo[1,5-a]pyridin-6-yl)-1H-indazol-3-yl)cyclohexyl)-6-oxa-2-azaspiro[3.4]octane]
6 | 3.9 | 4.1 | 657 | Cc1cc2c(C3CCNCC3)c[nH]c2cc1-c1cc(C)c2ncnn2c1 [Example 1, 8-methyl-6-(5-methyl-3-(piperidin-4-yl)-1H-indol-6-yl)-[1,2,4]triazolo[1,5-a]pyridine]
7 | 0.2 | 4.2 | 8900 | Cc1cc(-c2cc3[nH]nc(C4CCC(N5CCC(C)(O)C5)CC4)c3cc2C(C)C)cn2ncnc12 (single isomer, unassigned) [Example 166, 1-(4-(5-isopropyl-6-(8-methyl-[1,2,4]triazolo[1,5-a]pyridin-6-yl)-1H-indazol-3-yl)cyclohexyl)-3-methylpyrrolidin-3-ol]
8 | 0.3 | 1.3 | 13000 | Cc1cc(-c2cc3[nH]nc(C4CCC(N5CC(F)C5)CC4)c3cc2C(C)C)cn2ncnc12 (stereo not drawn) [Example 152, 6-(3-(4-(3-fluoroazetidin-1-yl)cyclohexyl)-5-isopropyl-1H-indazol-6-yl)-8-methyl-[1,2,4]triazolo[1,5-a]pyridine]
9 | 1.9 | 20 | 7300 | Cc1cc2c(C3CCCN(CC(=O)N(C)C)C3)n[nH]c2cc1-c1cc(C)c2ncnn2c1 (stereo not drawn) [Example 41, N,N-dimethyl-2-(3-(5-methyl-6-(8-methyl-[1,2,4]triazolo[1,5-a]pyridin-6-yl)-1H-indazol-3-yl)piperidin-1-yl) acetamide]
10 | 21.8 | 5.8 | 1290 | COc1cc(-c2cc(C)c3ncnn3c2)cc2[nH]nc(C3CCNCC3)c12 [Example 86, 6-(4-methoxy-3-(piperidin-4-yl)-1H-indazol-6-yl)-8-methyl-[1,2,4]triazolo[1,5-a]pyridine]
11 | 0.1 | 0.6 | 5450 | CCc1cc2c(C3CCC(NC4CC4)CC3)n[nH]c2cc1-c1cc(C)c2ncnn2c1 (single isomer, unassigned) [Example 97, N-cyclopropyl-4-(5-ethyl-6-(8-methyl-[1,2,4]triazolo[1,5-a]pyridin-6-yl)-1H-indazol-3-yl)cyclohexan-1-amine]
12 | 31.3 | 1.3 | 6450 | COc1cc(-c2cc3[nH]nc(C4CCC(N5CC(OC)C5)CC4)c3cc2C(C)C)cn2ncnc12 (single isomer, unassigned) [Example 148, 6-(5-isopropyl-3-(4-(3-methoxyazetidin-1-yl)cyclohexyl)-1H-indazol-6-yl)-8-methoxy-[1,2,4]triazolo[1,5-a]pyridine]
13 | 0.1 | 0.2 | 4200 | Cc1cc(-c2cc3[nH]nc(C4CCC(N5CCCC5)CC4)c3cc2C(C)C)cn2ncnc12 (single isomer, unassigned) [Example 130, 6-(5-isopropyl-3-(4-(pyrrolidin-1-yl)cyclohexyl)-1H-indazol-6-yl)-8-methyl-[1,2,4]triazolo[1,5-a]pyridine]
14 | 0.2 | 1.4 | 9190 | Cc1cc(-c2cc3[nH]nc(C4CCC(N5CCOCC5)CC4)c3cc2C(C)C)cn2ncnc12 (stereo not drawn) [Example 133, 4-(4-(5-isopropyl-6-(8-methyl-[1,2,4]triazolo[1,5-a]pyridin-6-yl)-1H-indazol-3-yl)cyclohexyl)morpholine]
